The source of these data is US9480703B2, “Method and composition of glycosaminoglycans in sickle cell and vascular disorders” (priority 2013, dated 2016).

The subject of series [1] is adhesion of sickle RBCs to endothelial cells (HUVECs). In words: Static adhesion assay of PKH67-labeled sickle RBCs on TNF-α-treated HUVECs. In kind it is cell-based, human. The following applies: HUVECs treated with TNF-α 10 ng/ml; PSI 10 μg/ml, LMWH & SNACH 40 μg/ml. As to the method:
Using gelatin-coated culture flasks, HUVEC were cultured in EGM complete media supplemented with 2 ml bovine brain extract (BBE), and passaged when 80% confluent using trypsin/EDTA solution according to the manufacturers' instructions. Cells from passages 2 to 6 were used for adhesion assay experiments. Cells were sub-cultured in a 96-well plate pre-coated with collagen with a number of 20,000 cells per well, and were left for 24 hours at 37° C. in a CO2 (5%) incubator to form a confluent monolayer.
Normal and sickle blood samples were collected in EDTA tubes from the antecubital vein of healthy volunteers and homozygous sickle cell patients, respectively. […] Packed RBCs were washed once with PBS, and counted using a CBC analyzer. […]
After HUVECs formed a confluent monolayer in the plate's wells, the experiment was designed to include five groups in […]: medium only (negative control), TNF-α only (positive control), or TNF-α with the treatment compounds: LMWH, SNACH, and PSI. […] Non-adherent RBCs were removed with PBS wash, and then 150 μl of complete medium were added for plate reading.
In order to quantitate endothelial-adherent RBCs by the fluorescence plate reader, serial two-fold dilutions of PKH67-labeled RBC samples were prepared from 2×10^6 to 0.16×10^6 RBCs/well. […] fluorescence was detectable with as few as 10^4 RBCs. […]

The test system of the next series is NFkB. Briefly: NF-KB luciferase reporter assay. The note with it: NF-KB Luciferase Reporter Hela Stable cells, 1 μL, 10 μL and 100 μL, two hours. The series is classed as cell-based. As to the method: The Luciferase Assay System was purchased from Promega (Madison, Wis., USA). NF-KB Luciferase Reporter Hela Stable cells were seeded at 10^4 cells/well in 96-well plate and incubated for 24 hours. Then, growth media was removed. Next, SNACH, tinzaparin or Poly-Arginine NPs were added at concentrations of 1 μL, 10 μL and 100 μL in triplicate and incubated at 36° C. for two hours. After two hours, cells were washed with PBS. Lysis buffer was prepared following a generic protocol. 0.5 mL of lysis buffer was mixed with 2 mL of PBS. Next, the lysis buffer's solution was added to each well. Afterward, the 96-well plate was rocked several times using a shaker. Cells and liquid were collected for centrifugation at 1200×g for 5 minutes at 4° C. The supernatant was removed and stored at −80° C. One week later, the 96-well plate was placed in the luminometer containing 20 μL of lysis buffer and 100 μL of luciferase assay reagent/well. The light was measured for a period of 10 seconds with a delay time of 2 seconds.
(Reporter assays use an easily measured gene product as a stand-in for the process of interest.)

A further series concerns factor Xa. In words: Anti-Xa in dosed mice. The series is classed as in vivo. The note with it: subcutaneous, SNACH 0.1-40 mg/Kg, tinzaparin 0.1-5.0 mg/Kg.
The subject of series [2] is platelet/fibrin clot dynamics. In words: Thrombelastography (TEG), cup with or without HUVEC coating. The following applies: re-calcified citrated whole blood. Here is the method:
Thrombelastography (TEG) was performed in either citrated whole blood after re-calcification. The blood samples were mixed with 3.8% tri-sodium citrate solution (one part citrate solution to 9 parts blood) as anticoagulant. The citrated whole blood was re-calcified by adding 0.4 ml isotonic calcium chloride solution. An aliquot of 0.36 ml of the re-calcified whole blood was transferred to the pre-warmed cup (Coated with monolayer of HUVEC or not) of the thrombelastograph. The following measurements were the standard variables of TEG: (i) Reaction time (R): the time from sample placement in the cup until onset of clotting (defined as amplitude of 1 mm). This represents the rate of initial fibrin formation; (ii) Maximum amplitude (MA): greatest amplitude on the TEG trace, wherein MA represents the absolute strength of the fibrin clot and is a direct function of the maximum dynamic strength of fibrin and platelets.

The test system of a further series is ICAM-1. In words: ICAM-1 levels in plasma of transgenic sickle cell mice. In kind it is in vivo. The note with it: daily subcutaneous treatment for 7 days, LMWH 5 mg/kg, SNACH (NACH) 20 mg/kg, PSI-14 10 mg/kg. The source says:
(§1) Transgenic SCD model mice (stock #013071) of aged-matched female were obtained from The Jackson Laboratory (Bar Harbor, Me.) in addition to wild mice as controls. Genetically, transgenic mice were designed with the human hemoglobin gamma (^Ay) gene and the human sickle hemoglobin beta (β^S) gene replacing the endogenous mouse major and minor β-globin.
(§2) Each category of mice (wild or SCD) was divided into three groups. Basal blood samples were taken by retro orbital venipuncture under anesthesia with citrated micro-hematocrit tubes, before the treatment administration. The three groups in each category were treated subcutaneously with LMWH (5 mg/kg), SNACH (20 mg/kg), and PSI (10 mg/kg). Compounds were administered daily for 7 days, and follow up blood samples were drawn daily after 1 hour of treatment administration. Immediately after collection, blood was centrifuged at 800×g for 5 minutes and plasma was collected and stored at −80° C.
Levels of adhesion biomarker ICAM-1 were measured in mice plasma using the Bio-Plex 200 systems. Assay kit (171-304080M) was obtained from Bio-Rad (Hercules, Calif.) and the experiment was conducted following the provided instructions. The assay principle is based on the concept of sandwich ELISA where magnetic beads are covalently bound to the capture antibodies that react to the targeted biomarker. […]

In series [3] the test system is endogenous pathway of coagulation. Briefly: aPTT in citrated plasma. The note with it: SNACH 1-10 uM. Here is the method: To 0.1 ml of citrated plasma 0.1 ml of human placenta lipid is added and the mixture is incubated for 2 min at 37° C. The coagulation process is initiated by the addition of 0.1 ml 25 mM calcium chloride and the time to clot formation is determined. The aPTT measures effects on the endogenous pathway of coagulation.

Series [4] is described as follows: Mortality of treated SCD mice. The series is classed as in vivo. The note with it: LMWH 5 mg/kg daily, % of the group's mice. As to the method: as §2
The next series in a line: aPTT in dosed mice. The note with it: subcutaneous, SNACH 0.1-40 mg/Kg, tinzaparin 0.1-5.0 mg/Kg. The series is classed as in vivo.
Another series concerns P-selectin. In words: P-selectin levels in plasma of transgenic sickle cell mice. The series is classed as in vivo. The following applies: daily subcutaneous treatment for 7 days, LMWH 5 mg/kg, SNACH (NACH) 20 mg/kg.
Excerpt: as §1, §2

A short description of a further series: Bleeding time in mice. In kind it is in vivo.

tinzaparin [LMWH]: the “adhesion of sickle RBCs to the endothelial layer compared to TNF-α only (positive control)” value in series [1] is given as “did not show a decrease in the adhesion that could be considered statistically significant”. Further, the NFkB activation entry in the series with NFkB is “significant concentration-dependent suppression of NFkB activation”. For the same substance, the anti-Xa entry with factor Xa was “inhibition of factor Xa”. Moreover, the “platelet/fibrin clot dynamics (TEG)” value in series [2] (absence of endothelial cell coating of cup) and in [2] (presence of endothelial cell (HUVEC) coating of cup) was “suppression of platelet/fibrin clot dynamics” each time. In addition, the “ICAM-1 levels in plasma at multiple time points” value with ICAM-1 is “showed a decrease only on the first and third days of treatment”. In addition, the “effect on aPTT” value in series [3] was “concentration dependent increase in aPTT”. The “mortality rate (bleeding complications)” value in series [4] came out at 75%. For the same substance, in the series “aPTT in dosed mice”, the aPTT entry is “increase in aPTT”. In the series on P-selectin, the “decrease of P-selectin levels in plasma” value is given as roughly 15%. Also, the bleeding time result in the series “Bleeding time in mice” (subcutaneous, SNACH 0.1-40 mg/Kg, tinzaparin 0.1-5.0 mg/Kg) was “maximal increase in bleeding time”. Moreover, the “finding at site of injection” value in the series “Bleeding time in mice” (tinzaparin 0.1-5.0 mg/Kg subcutaneously) is listed as “browsing at site of injection”.
